Assay results taken from PubChem BioAssay AID1963847 (Molecular Pharmacology Branch, DTP, NCI, 2024).

System: 415267-285-R-J2-PDC complex spheroid viability
Test: Anticancer human tumor 415267-285-R-J2-PDC patient-derived breast carcinoma cell line growth inhibition [POLQ]
Details: for IC50: curve of first compound; for viability, T/C: stronger effect = lower value
Method in brief: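 Complex spheroid viability model combining PDC tumour cells with endothelial (HUVEC) and MSC stromal cells. Novobiocin, ART-558 or RP6685 were tested singly and in combination with standard and investigational anticancer drugs. Each was titrated in half-log steps from near clinical Cmax, or from 10 microM where Cmax was unknown.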

[1] = second compound 0.0316 µM, first compound 0.0316 µM
[2] = second compound 0.0316 µM, first compound 0.1 µM
[3] = second compound 0.0316 µM, first compound 0.316 µM
[4] = second compound 0.0316 µM, first compound 1 µM
[5] = second compound 0.0316 µM, first compound 3.16 µM
[6] = second compound 0.0316 µM, first compound 10 µM
[7] = second compound 0.1 µM, first compound 0.0316 µM
[8] = second compound 0.1 µM, first compound 0.1 µM
[9] = second compound 0.1 µM, first compound 0.316 µM
[10] = second compound 0.1 µM, first compound 1 µM
[11] = second compound 0.1 µM, first compound 3.16 µM
[12] = second compound 0.1 µM, first compound 10 µM
[13] = second compound 0.316 µM, first compound 0.0316 µM
[14] = second compound 0.316 µM, first compound 0.1 µM
[15] = second compound 0.316 µM, first compound 0.316 µM
[16] = second compound 0.316 µM, first compound 1 µM
[17] = second compound 0.316 µM, first compound 3.16 µM
[18] = second compound 0.316 µM, first compound 10 µM
[19] = second compound 1 µM, first compound 0.0316 µM
[20] = second compound 1 µM, first compound 0.1 µM
[21] = second compound 1 µM, first compound 0.316 µM
[22] = second compound 1 µM, first compound 1 µM
[23] = second compound 1 µM, first compound 3.16 µM
[24] = second compound 1 µM, first compound 10 µM
[25] = second compound 3.16 µM, first compound 0.0316 µM
[26] = second compound 3.16 µM, first compound 0.1 µM
[27] = second compound 3.16 µM, first compound 0.316 µM
[28] = second compound 3.16 µM, first compound 1 µM
[29] = second compound 3.16 µM, first compound 3.16 µM
[30] = second compound 3.16 µM, first compound 10 µM
[31] = second compound 10 µM, first compound 0.0316 µM
[32] = second compound 10 µM, first compound 0.1 µM
[33] = second compound 10 µM, first compound 0.316 µM
[34] = second compound 10 µM, first compound 1 µM
[35] = second compound 10 µM, first compound 3.16 µM
[36] = second compound 10 µM, first compound 10 µM
[37] = second compound 0.0316 µM, first compound 0.00316 µM
[38] = second compound 0.0316 µM, first compound 0.01 µM
[39] = second compound 0.1 µM, first compound 0.00316 µM
[40] = second compound 0.1 µM, first compound 0.01 µM
[41] = second compound 0.316 µM, first compound 0.00316 µM
[42] = second compound 0.316 µM, first compound 0.01 µM
[43] = second compound 1 µM, first compound 0.00316 µM
[44] = second compound 1 µM, first compound 0.01 µM
[45] = second compound 3.16 µM, first compound 0.00316 µM
[46] = second compound 3.16 µM, first compound 0.01 µM
[47] = second compound 10 µM, first compound 0.00316 µM
[48] = second compound 10 µM, first compound 0.01 µM
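Also: spheroids exposed to compounds for one week before readout.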
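For viability, T/C in this document: luminescence used as stand-in measure of viable cells; 100% = DMSO vehicle control viability.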

Compound `CC1COCCN1c1cc(C2(S(C)(=N)=O)CC2)nc(-c2ccnc3[nH]ccc23)n1` (stereo not drawn) + COC1C(OC(N)=O)C(O)C(Oc2ccc3c(O)c(NC(=O)c4ccc(O)c(CC=C(C)C)c4)c(=O)oc3c2C)OC1(C)C has an IC50 (second compound 0.0316 µM) of 463 nM, an IC50 (second compound 0.1 µM) of 432 nM and an IC50 (second compound 0.316 µM) of 504 nM. It also gave an IC50 (second compound 1 µM) of 512 nM, an IC50 (second compound 3.16 µM) of 591 nM and an IC50 (second compound 10 µM) of 513 nM. The viability, T/C [1] was 105%, the viability, T/C [2] was 108% and the viability, T/C [3] was 67.2%. The viability, T/C [4] was 14.9%, the viability, T/C [5] was 6.29% and the viability, T/C [6] was 4.89%. For the same compound, the viability, T/C [7] was 105%, the viability, T/C [8] was 96.6% and the viability, T/C [9] was 65.3%. It also gave a viability, T/C [10] of 9.55%, a viability, T/C [11] of 5.9% and a viability, T/C [12] of 4.32%. For the same compound, the viability, T/C [13] was 95.4%, the viability, T/C [14] was 96.3% and the viability, T/C [15] was 76.2%. It also gave a viability, T/C [16] of 11.6%, a viability, T/C [17] of 7.22% and a viability, T/C [18] of 5.59%. It also gave a viability, T/C [19] of 93.2%, a viability, T/C [20] of 97.7% and a viability, T/C [21] of 76.2%. The viability, T/C [22] was 13.5%, the viability, T/C [23] was 10% and the viability, T/C [24] was 4.78%. It also gave a viability, T/C [25] of 95%, a viability, T/C [26] of 105% and a viability, T/C [27] of 89.8%. For the same compound, the viability, T/C [28] was 16.4%, the viability, T/C [29] was 6.8% and the viability, T/C [30] was 4.43%. For the same compound, the viability, T/C [31] was 97.5%, the viability, T/C [32] was 97.9% and the viability, T/C [33] was 76.5%. The viability, T/C [34] was 13.5%, the viability, T/C [35] was 6.73% and the viability, T/C [36] was 5.32%.
With `O=c1[nH]cc(F)c(=O)[nH]1` + Cc1cccc(N(C)C(=O)C2C(O)CCN2c2nc(C)cc(C(F)(F)F)c2C#N)c1 the IC50 (second compound 0.0316 µM) was 222 nM, the IC50 (second compound 0.1 µM) was 207 nM and the IC50 (second compound 0.316 µM) was 203 nM. For the same compound, the IC50 (second compound 1 µM) was 181 nM, the IC50 (second compound 3.16 µM) was 192 nM and the IC50 (second compound 10 µM) was 179 nM. For the same compound, the viability, T/C [1] was 87.3%, the viability, T/C [2] was 83.9% and the viability, T/C [3] was 35.1%. For the same compound, the viability, T/C [4] was 30.1%, the viability, T/C [5] was 27.6% and the viability, T/C [6] was 43%. It also gave a viability, T/C [7] of 97.1%, a viability, T/C [8] of 72.6% and a viability, T/C [9] of 37.3%. The viability, T/C [10] was 27.2%, the viability, T/C [11] was 28% and the viability, T/C [12] was 39%. It also gave a viability, T/C [13] of 98.8%, a viability, T/C [14] of 72% and a viability, T/C [15] of 36.9%. For the same compound, the viability, T/C [16] was 26.6%, the viability, T/C [17] was 26.8% and the viability, T/C [18] was 36.1%. The viability, T/C [19] was 100%, the viability, T/C [20] was 64.8% and the viability, T/C [21] was 36.7%. The viability, T/C [22] was 28.5%, the viability, T/C [23] was 25.6% and the viability, T/C [24] was 35.4%. For the same compound, the viability, T/C [25] was 95.8%, the viability, T/C [26] was 67.9% and the viability, T/C [27] was 36.6%. It also gave a viability, T/C [28] of 28.8%, a viability, T/C [29] of 33.5% and a viability, T/C [30] of 33.6%. The viability, T/C [31] was 92.1%, the viability, T/C [32] was 64.5% and the viability, T/C [33] was 36.3%. The viability, T/C [34] was 26.8%, the viability, T/C [35] was 24.7% and the viability, T/C [36] was 29.4%.
`COc1cccc(OCCCN)c1-c1cc(Nc2cnc(C#N)cn2)n[nH]1` + COC1C(OC(N)=O)C(O)C(Oc2ccc3c(O)c(NC(=O)c4ccc(O)c(CC=C(C)C)c4)c(=O)oc3c2C)OC1(C)C was tested, and the IC50 (second compound 0.0316 µM) was < 3.16 nM, the IC50 (second compound 0.1 µM) was < 3.16 nM and the IC50 (second compound 0.316 µM) was < 3.16 nM. The IC50 (second compound 1 µM) was 3.68 nM, the IC50 (second compound 3.16 µM) was 3.6 nM and the IC50 (second compound 10 µM) was 3.84 nM. The viability, T/C [37] was 41.4%, the viability, T/C [38] was 14.1% and the viability, T/C [1] was 7.52%. It also gave a viability, T/C [2] of 8.68%, a viability, T/C [3] of 6.7% and a viability, T/C [4] of 4.81%. For the same compound, the viability, T/C [39] was 40.2%, the viability, T/C [40] was 10.2% and the viability, T/C [7] was 7.65%. It also gave a viability, T/C [8] of 6.8%, a viability, T/C [9] of 6.5% and a viability, T/C [10] of 5.69%. For the same compound, the viability, T/C [41] was 46.9%, the viability, T/C [42] was 8.13% and the viability, T/C [13] was 8.41%. For the same compound, the viability, T/C [14] was 6.89%, the viability, T/C [15] was 7.31% and the viability, T/C [16] was 4.55%. The viability, T/C [43] was 56.2%, the viability, T/C [44] was 9.03% and the viability, T/C [19] was 7.11%. The viability, T/C [20] was 7.02%, the viability, T/C [21] was 5.8% and the viability, T/C [22] was 4.41%. For the same compound, the viability, T/C [45] was 55.3%, the viability, T/C [46] was 8.65% and the viability, T/C [25] was 7.11%. The viability, T/C [26] was 7.79%, the viability, T/C [27] was 5.22% and the viability, T/C [28] was 5.51%. It also gave a viability, T/C [47] of 58.6%, a viability, T/C [48] of 7.45% and a viability, T/C [31] of 7.04%. It also gave a viability, T/C [32] of 6.59%, a viability, T/C [33] of 6.37% and a viability, T/C [34] of 5.49%.
With `CCc1c2c(nc3ccc(O)cc13)-c1cc3c(c(=O)n1C2)COC(=O)[C@]3(O)CC` + Cc1cccc(N(C)C(=O)C2C(O)CCN2c2nc(C)cc(C(F)(F)F)c2C#N)c1 the IC50 (second compound 0.0316 µM) was < 3.16 nM, the IC50 (second compound 0.1 µM) was < 3.16 nM and the IC50 (second compound 0.316 µM) was < 3.16 nM. The IC50 (second compound 1 µM) was < 3.16 nM, the IC50 (second compound 3.16 µM) was < 3.16 nM and the IC50 (second compound 10 µM) was < 3.16 nM. The viability, T/C [37] was 27.1%, the viability, T/C [38] was 11.3% and the viability, T/C [1] was 5.73%. The viability, T/C [2] was 3.97%, the viability, T/C [3] was 3.18% and the viability, T/C [4] was 1.44%. It also gave a viability, T/C [39] of 26.4%, a viability, T/C [40] of 10% and a viability, T/C [7] of 5.47%. It also gave a viability, T/C [8] of 4.21%, a viability, T/C [9] of 3.59% and a viability, T/C [10] of 1.35%. For the same compound, the viability, T/C [41] was 32.5%, the viability, T/C [42] was 11.6% and the viability, T/C [13] was 5.27%. It also gave a viability, T/C [14] of 3.49%, a viability, T/C [15] of 3.51% and a viability, T/C [16] of 1.32%. For the same compound, the viability, T/C [43] was 34%, the viability, T/C [44] was 9.41% and the viability, T/C [19] was 6.43%. It also gave a viability, T/C [20] of 4.75%, a viability, T/C [21] of 3.42% and a viability, T/C [22] of 0.75%. The viability, T/C [45] was 34.7%, the viability, T/C [46] was 8.16% and the viability, T/C [25] was 6.7%. It also gave a viability, T/C [26] of 4.46%, a viability, T/C [27] of 4.26% and a viability, T/C [28] of 1.28%. It also gave a viability, T/C [47] of 29.4%, a viability, T/C [48] of 10.3% and a viability, T/C [31] of 6.91%. It also gave a viability, T/C [32] of 3.72%, a viability, T/C [33] of 3.54% and a viability, T/C [34] of 1.1%.
